In patent US12252524B2, “GIP/GLP1 co-agonist compounds” (Eli Lilly and Company, priority 2018, dated 2025):
Numbered stars: 1 amine (or outer) side, 2 acyl side, 3 side chain; on linkers, the order of the positions; unused ones are H or OH. Square brackets hold non-standard residues; d marks the D form. Side chains are listed from the residue outwards. Peptide text beside a SMILES is read from it. * marks the point of attachment. C20 diacid = O=C(O)CCCCCCCCCCCCCCCCCCC(=O)*; C18 diacid = O=C(O)CCCCCCCCCCCCCCCCC(=O)*; γGlu = O=C(O)[C@H](CCC(=O)[*:2])N[*:1]; αMeL = CC(C)C[C@](C)(N)C(=O)O; Orn = NCCC[C@H](N)C(=O)O; AEEA = NCCOCCOCC(=O)O; Aib = CC(C)(N)C(=O)O

Assays:
[1] = tested on: CD8+ T cell depleted peripheral blood mononuclear cells; assay: CD4+ T cell assay for potential clinical immunogenicity; conditions: Examples 10 uM, KLH 0.33 μM, 7 days
Procedure: The purpose of this study is to determine the relative potential for clinical immunogenicity of a compound.
CD8+ T cell depleted peripheral blood mononuclear cells are prepared and labeled with Carboxyfluorescein Diacetate Succinimidyl Ester (CFSE, Invitrogen) from a cohort of 10 healthy donors. […] Cultures are incubated for 7 days at 37° C. with 5% CO2. On day 7, samples are analyzed by flow cytometry using High Throughput Sampler (HTS). Data is analyzed using FlowJo® Software (FlowJo, LLC, TreeStar).

human GLP-1R [2] = molecular target: T1, human GLP-1R (Homo sapiens, UniProt P43220); assay: [125I]-GLP-1 binding (SPA), human GLP-1 receptor; set-up: expressed in transfected cells; crude membranes; conditions: read-out: hGLP1R Ki, (nM) (SEM, n)
T1 sequence (P43220 24-463): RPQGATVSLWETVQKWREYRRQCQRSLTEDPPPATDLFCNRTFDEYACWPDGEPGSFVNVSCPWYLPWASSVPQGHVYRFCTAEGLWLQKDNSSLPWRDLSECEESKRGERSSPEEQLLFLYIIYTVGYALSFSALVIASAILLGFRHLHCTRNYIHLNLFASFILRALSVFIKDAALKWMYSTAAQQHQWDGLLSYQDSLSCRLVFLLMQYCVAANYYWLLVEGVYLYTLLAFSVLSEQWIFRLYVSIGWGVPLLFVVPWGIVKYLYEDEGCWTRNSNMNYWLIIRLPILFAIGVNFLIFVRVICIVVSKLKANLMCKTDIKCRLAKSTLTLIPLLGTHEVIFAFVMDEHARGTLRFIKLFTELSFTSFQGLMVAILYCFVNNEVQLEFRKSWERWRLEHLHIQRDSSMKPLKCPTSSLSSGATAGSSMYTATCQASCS
Method in brief: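 Ki values are geometric means with SEM over independent replicates on different days, derived from IC50s fitted by four-parameter nonlinear regression. The assay used crude cell membranes in HEPES buffer, pH 7.4, containing CaCl2, MgCl2, bacitracin and TWEEN-20.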

[3] = molecular target: T2, gastric inhibitory peptide receptor (GIPR) (Homo sapiens, UniProt P48546); assay: cAMP pharmacological functional assay in presence of casein, hGIPR; format: cell-based; conditions: HEK293 cells expressing hGIPR, 0.1% Casein, geometric mean; read-out: hGIPR cAMP Rel EC50 nM (SEM, n)
T2 sequence (P48546 22-466): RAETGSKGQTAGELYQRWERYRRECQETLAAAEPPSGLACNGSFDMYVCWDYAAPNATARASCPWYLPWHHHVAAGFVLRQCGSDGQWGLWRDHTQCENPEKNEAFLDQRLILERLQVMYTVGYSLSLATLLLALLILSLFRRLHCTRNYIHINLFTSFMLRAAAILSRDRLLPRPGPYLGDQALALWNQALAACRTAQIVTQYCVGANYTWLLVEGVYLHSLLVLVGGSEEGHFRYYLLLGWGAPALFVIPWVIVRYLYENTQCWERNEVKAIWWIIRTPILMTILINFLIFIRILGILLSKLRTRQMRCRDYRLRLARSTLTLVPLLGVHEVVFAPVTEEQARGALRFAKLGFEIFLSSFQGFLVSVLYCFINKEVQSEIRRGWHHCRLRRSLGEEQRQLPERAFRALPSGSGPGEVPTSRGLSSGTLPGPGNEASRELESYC

[4] = molecular target: human GLP-1 receptor (GLP-1R) (Homo sapiens, UniProt P43220); assay: cAMP pharmacological functional assay in presence of casein, hGLP-1R; format: cell-based; conditions: HEK293 cells expressing hGLP-1R, 0.1% Casein, geometric mean; read-out: hGLP1R cAMP Rel EC50 nM (SEM, n)
Chain of human GLP-1 receptor (GLP-1R) (P43220 24-463): as the sequence (P43220 24-463) above

human GIP receptor = molecular target: T3, human GIP receptor (Homo sapiens, UniProt P48546); assay: [125I]-GIP binding (SPA), human GIP receptor; conditions: read-out: hGIPR Ki, nM (SEM, n)
T3 construct: expressed in transfected cells; crude membranes
T3 sequence (P48546 22-466): T2 sequence (P48546 22-466)

human Gcg receptor = molecular target: T4, human Gcg receptor (Homo sapiens, UniProt P47871); assay: [125I]-Glucagon binding (SPA), human Gcg receptor; conditions: read-out: hGLcgR Ki, nM (SEM, n)
T4 construct: expressed in transfected cells; crude membranes
T4 sequence (P47871 26-477): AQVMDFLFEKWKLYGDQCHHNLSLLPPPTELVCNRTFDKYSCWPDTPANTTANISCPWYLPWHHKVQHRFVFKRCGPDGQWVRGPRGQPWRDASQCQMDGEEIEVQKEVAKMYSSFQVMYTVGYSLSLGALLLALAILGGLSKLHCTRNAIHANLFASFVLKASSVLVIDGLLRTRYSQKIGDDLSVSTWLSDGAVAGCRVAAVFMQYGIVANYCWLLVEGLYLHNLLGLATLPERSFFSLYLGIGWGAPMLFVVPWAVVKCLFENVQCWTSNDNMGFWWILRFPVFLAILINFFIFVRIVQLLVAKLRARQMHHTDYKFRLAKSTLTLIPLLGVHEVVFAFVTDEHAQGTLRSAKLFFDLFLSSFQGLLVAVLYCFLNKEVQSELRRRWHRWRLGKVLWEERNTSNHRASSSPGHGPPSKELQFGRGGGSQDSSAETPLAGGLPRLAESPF
Method in brief: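 Cell pellets were lysed in hypotonic Tris buffer, pH 7.5, homogenized, and spun at low then high speed to give crude membranes. Ki was derived from the fitted IC50.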

in vitro = assay: in vitro
Procedure: The stability of peptides are compared in 1% rat small intestinal fluid (rSIF). The amount of intact peptide is measured for a sample peptide at 0, 3, 15, and 30 minutes to assess proteolytic stability. The amount of intact peptide for a sample peptide is measured in 90% pig small intestinal fluid (pSIF) at 0, 30, 45, and 60 minutes to assess the proteolytic stability.
Peptides are prepared at 0.4 mg/mL in 50 mM Tris pH8.0. […] The mixture is incubated at 37° C. at 150 rpm. Thirty μL of each sample are removed and placed into a new tube before the rSIF is added and at […]. At each time point, the reaction was quenched by 1% TFA in 50% ACN at 1:1. The samples are diluted 100 times using dilution buffer (1:1 of 1% TFA in 50% ACN: 50 mM Tris pH8) and ready for analysis using mass spectrometry (MS).
The data analysis is performed using MassLynx.

human GLP-1R [5] = molecular target: T1, human GLP-1R; assay: GLP-1R CHO cell β-arrestin recruitment assay; format: cell-based; set-up: host or cells: CHO-K1 PathHunter cells, assay-ready frozen; conditions: for EC50: CHO-K1 cells, PathHunter β-arrestin-2 recruitment, 0.1% casein, read-out: hGLP1R B-Arrestin2 Rel EC50 uM (SEM, n); for hGLP1R B-Arrestin2 % Top: normalized to GLP-1 maximum control
Method in brief: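 PathHunter CHO-K1 cells with ProLink-tagged human GLP-1R and enzyme-acceptor-tagged β-arrestin-2 treated with serially diluted peptides in assay buffer containing 0.1% hydrolyzed casein, 90 min at 37 °C.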

human GLP-1R [6] = molecular target: T1, human GLP-1R; assay: GLP-1R HEK293 cell membrane [35S]GTPγS binding assay; format: biochemical; set-up: expressed in transfected cells; host or cells: HEK293 cells expressing human GLP-1R; membranes; conditions: HEK293 cell membranes expressing human GLP-1R, [35S]GTPγS binding; read-out: hGLP1R GTPgS Rel EC50 nM (SEM, n)
Method in brief: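 Membranes from HEK293 cells expressing the receptor incubated with peptide and […] [35S]GTPγS in HEPES pH 7.4 buffer with NaCl, MgCl2, saponin and BSA, 30 min at room temperature. Gαs-bound label captured by anti-Gαs antibody/SPA beads and counted; EC50 from four-parameter logistic fit.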

[7] = rat, real gastrointestinal fluid or homogenate, pH 8

Compound | % Donor Response (CD4+ T cell response) [1] [%] | Median Response Strength in positive donors (CDI) [1] [CDI] | Ki (human GLP-1R [2]) [nM] | EC50 [3] [nM] | EC50 [4] [nM] | Ki (human GIP receptor) [nM] | Ki (human Gcg receptor) [nM] | percentage of peptide not cleaved using rSIF (in vitro) [%] | remaining at 0.05 h, 0.4 mg/mL (in vitro; [7]) [%] | remaining at 0.25 h, 0.4 mg/mL (in vitro; [7]) [%] | remaining at 1 h, 0.4 mg/mL (in vitro; [7]) [%] | EC50 (human GLP-1R [5]) [µM] | hGLP1R B-Arrestin2 % Top (human GLP-1R [5]) [%] | EC50 (human GLP-1R [6]) [nM]
keyhole limpet hemocyanin [KLH, reference compound] | 100 | 391 |  |  |  |  |  |  |  |  |  |  |  | 
CC[C@H](C)[C@H](NC(=O)[C@H](CC(C)C)NC(=O)[C@H](Cc1ccc(O)cc1)NC(=O)[C@H](CCC(=O)O)NC(=O)[C@@H](NC(=O)[C@H](Cc1ccccc1)NC(=O)[C@H](C)NC(=O)C(C)(C)NC(=O)[C@H](CCC(N)=O)NC(=O)[C@H](C)NC(=O)[C@H](CCCCNC(=O)COCCOCCNC(=O)COCCOCCNC(=O)CC[C@H](NC(=O)CCCCCCCCCCCCCCCCCCC(=O)O)C(=O)O)NC(=O)[C@H](CCCCN)NC(=O)[C@H](CC(=O)O)NC(=O)[C@H](CC(C)C)NC(=O)[C@](C)(CC(C)C)NC(=O)[C@@H](NC(=O)[C@H](CO)NC(=O)[C@H](Cc1ccc(O)cc1)NC(=O)[C@H](CC(=O)O)NC(=O)[C@H](CO)NC(=O)[C@@H](NC(=O)[C@](C)(Cc1ccccc1)NC(=O)[C@@H](NC(=O)CNC(=O)[C@H](CCC(=O)O)NC(=O)C(C)(C)NC(=O)[C@@H](N)Cc1ccc(O)cc1)[C@@H](C)O)[C@@H](C)O)[C@@H](C)CC)[C@@H](C)CC)C(=O)N[C@@H](CCC(=O)O)C(=O)NCC(=O)NCC(=O)N1CCC[C@H]1C(=O)N[C@@H](CO)C(=O)N[C@@H](CO)C(=O)NCC(=O)N[C@@H](C)C(=O)N1CCC[C@H]1C(=O)N1CCC[C@H]1C(=O)N1CCC[C@H]1C(=O)N[C@@H](CO)C(N)=O [Example 69] |  |  | 1.22 | 0.0712 | 0.0844 | 0.03 | 22.1 | 100 | 2.2 | 0 | 0 |  |  | 
CC[C@H](C)[C@H](NC(=O)[C@H](CC(C)C)NC(=O)[C@H](Cc1ccc(O)cc1)NC(=O)[C@H](CCC(=O)O)NC(=O)[C@@H](NC(=O)[C@H](Cc1ccccc1)NC(=O)[C@H](CCC(=O)O)NC(=O)C(C)(C)NC(=O)[C@H](CCC(N)=O)NC(=O)[C@H](C)NC(=O)[C@H](CCCCNC(=O)COCCOCCNC(=O)COCCOCCNC(=O)CC[C@H](NC(=O)CCCCCCCCCCCCCCCCCCC(=O)O)C(=O)O)NC(=O)[C@H](CCCN)NC(=O)[C@H](CC(=O)O)NC(=O)[C@H](CC(C)C)NC(=O)[C@](C)(CC(C)C)NC(=O)[C@@H](NC(=O)[C@H](CO)NC(=O)[C@H](Cc1ccc(O)cc1)NC(=O)[C@H](CC(=O)O)NC(=O)[C@H](CO)NC(=O)[C@@H](NC(=O)[C@H](Cc1ccccc1)NC(=O)[C@@H](NC(=O)CNC(=O)[C@H](CCC(=O)O)NC(=O)C(C)(C)NC(=O)[C@H](N)Cc1ccc(O)cc1)[C@@H](C)O)[C@@H](C)O)[C@@H](C)CC)[C@@H](C)CC)C(=O)N[C@@H](C)C(=O)NCC(=O)NCC(=O)N1CCC[C@H]1C(=O)N[C@@H](CO)C(=O)N[C@@H](CO)C(=O)NCC(=O)N[C@@H](C)C(=O)N1CCC[C@H]1C(=O)N1CCC[C@H]1C(=O)N1CCC[C@H]1C(=O)N[C@@H](CO)C(N)=O [Example 349] (H-[dY][Aib]EGTFTSDYSI[αMeL]LD[Orn]K([AEEA-AEEA-γGlu-C20 diacid])AQ[Aib]EFIEYLIAGGPSSGAPPPS-NH2) |  |  | 1.72 | 0.117 | 0.121 | 0.08 | > 1060 |  |  |  |  | 0.0151 | 18.4 | 0.464
CC[C@H](C)[C@H](NC(=O)[C@H](CC(C)C)NC(=O)[C@H](Cc1ccc(O)cc1)NC(=O)[C@H](CCC(=O)O)NC(=O)[C@@H](NC(=O)[C@H](Cc1ccccc1)NC(=O)[C@H](C)NC(=O)C(C)(C)NC(=O)[C@H](CCC(N)=O)NC(=O)[C@H](C)NC(=O)[C@H](CCCCNC(=O)COCCOCCNC(=O)COCCOCCNC(=O)CC[C@H](NC(=O)CCCCCCCCCCCCCCCCC(=O)O)C(=O)O)NC(=O)[C@H](CCCCN)NC(=O)[C@H](CC(=O)O)NC(=O)[C@H](CC(C)C)NC(=O)[C@H](CC(C)C)NC(=O)[C@@H](NC(=O)[C@H](CO)NC(=O)[C@H](Cc1ccc(O)cc1)NC(=O)[C@H](CC(=O)O)NC(=O)[C@H](CO)NC(=O)[C@@H](NC(=O)[C@H](Cc1ccccc1)NC(=O)[C@@H](NC(=O)CNC(=O)[C@H](CCC(=O)O)NC(=O)C(C)(C)NC(=O)[C@@H](N)Cc1ccc(O)cc1)[C@@H](C)O)[C@@H](C)O)[C@@H](C)CC)[C@@H](C)CC)C(=O)N[C@@H](CCC(=O)O)C(=O)NCC(=O)NCC(N)=O [Example 267] (H-Y[Aib]EGTFTSDYSILLDKK([AEEA-AEEA-γGlu-C18 diacid])AQ[Aib]AFIEYLIEGG-NH2) |  |  | 1.57 | 0.108 | 0.054 | 0.0628 | 349 |  |  |  |  | 0.00901 | 16.5 | 0.867
CC[C@H](C)[C@H](NC(=O)[C@H](CC(C)C)NC(=O)[C@H](Cc1ccc(O)cc1)NC(=O)[C@@H](CCC(=O)O)NC(=O)[C@@H](NC(=O)[C@H](Cc1ccccc1)NC(=O)[C@H](C)NC(=O)C(C)(C)NC(=O)[C@H](CCC(N)=O)NC(=O)[C@H](C)NC(=O)[C@H](CCCCNC(=O)COCCOCCNC(=O)COCCOCCNC(=O)CC[C@H](NC(=O)CCCCCCCCCCCCCCCCCCC(=O)O)C(=O)O)NC(=O)[C@H](CCCCN)NC(=O)[C@H](CC(=O)O)NC(=O)[C@H](CC(C)C)NC(=O)[C@](C)(CC(C)C)NC(=O)[C@@H](NC(=O)[C@H](CO)NC(=O)[C@H](Cc1ccc(O)cc1)NC(=O)[C@H](CC(=O)O)NC(=O)[C@H](CO)NC(=O)[C@@H](NC(=O)[C@H](Cc1ccccc1)NC(=O)[C@@H](NC(=O)CNC(=O)[C@H](CCC(=O)O)NC(=O)C(C)(C)NC(=O)[C@H](N)Cc1ccc(O)cc1)[C@@H](C)O)[C@@H](C)O)[C@@H](C)CC)[C@@H](C)CC)C(=O)N[C@@H](C)C(=O)NCC(=O)NCC(=O)N1CCC[C@H]1C(=O)N[C@@H](CO)C(=O)N[C@@H](CO)C(=O)NCC(=O)N[C@@H](C)C(=O)N1CCC[C@H]1C(=O)N1CCC[C@H]1C(=O)N1CCC[C@H]1C(=O)N[C@@H](CO)C(N)=O [Example 352] (H-[dY][Aib]EGTFTSDYSI[αMeL]LDKK([AEEA-AEEA-γGlu-C20 diacid])AQ[Aib]AFI[dE]YLIAGGPSSGAPPPS-NH2) |  |  | 3.03 | 0.127 | 0.142 | 0.0726 | > 1030 |  |  |  |  | 0.00421 | 17.4 | 0.552
